Data taken from patent US10570129B2 (Zoetis Services LLC, priority 2015, dated 2020).

What was measured:
Haemonchus contortus L3 = test: microbe, parasite or virus in culture; format: cell-based; details: Haemonchus contortus, 96 h, read-out: HcL3 Minimal Effective Concentration (MEC)
D. immitis microfilariae = test: Dirofilaria immitis, microfilariae (DiMF) in vitro motility assay; format: cell-based; details: Dirofilaria immitis, 72 h, read-out: DiMF minimally effective dose (MEC)

Row | SMILES | minimal effective concentration (Haemonchus contortus L3) | minimal effective concentration (D. immitis microfilariae)
1 | COc1cc2c3c(n(C(=O)NCc4ccnc(Cl)c4)c2cc1C(F)(F)F)CCN(C/C=C/c1ccc(Cl)cc1)C3 [Example 329, (E)-2-(3-(4-chlorophenyl)allyl)-N-((2-chloropyridin-4-yl)methyl)-8-methoxy-7-(trifluoromethyl)-1,2,3,4-tetrahydro-5H-pyrido[4,3-b]indole-5-carboxamide] | 0.3 µM | 1.8 µM
2 | O=C(NCc1ccnc(Cl)c1)n1c2c(c3cc(Cl)ccc31)CN(C/C=C/c1ccc(OC(F)(F)F)cc1)CC2 [Example 245, (E)-8-chloro-N-((2-chloropyridin-4-yl)methyl)-2-(3-(4-(trifluoromethoxy)-phenyl)allyl)-1,2,3,4-tetrahydro-5H-pyrido[4,3-b]indole-5-carboxamide] | 3.3 µM | 11.9 µM
3 | O=C(NCc1ccnc(Cl)c1)n1c2c(c3c(Cl)c(F)ccc31)CN(C/C=C/c1ccc(Cl)cc1)CC2 [Example 305, (E)-9-chloro-2-(3-(4-chlorophenyl)allyl)-N-((2-chloropyridin-4-yl)methyl)-8-fluoro-1,2,3,4-tetrahydro-5H-pyrido[4,3-b]indole-5-carboxamide] | 0.9 µM | 16.5 µM
4 | N#Cc1ccc(/C=C/CN2CCc3c(c4cc5c(cc4n3C(=O)NCc3ccnc(Cl)c3)COC5)C2)cc1 [Example 479, (E)-N-((2-chloropyridin-4-yl)methyl)-8-(3-(4-cyanophenyl)allyl)-1,3,6,7,8,9-hexahydro-5H-furo[3,4-f]pyrido[4,3-b]indole-5-carboxamide] | 1 µM | > 100 µM
5 | COc1cc2c3c(n(C(=O)NCc4ccnc(Cl)c4)c2cc1C#N)CCN(C/C=C/c1ccc(Cl)cc1)C3 [Example 493, (E)-2-(3-(4-chlorophenyl)allyl)-N-((2-chloropyridin-4-yl)methyl)-7-cyano-8-methoxy-1,2,3,4-tetrahydro-5H-pyrido[4,3-b]indole-5-carboxamide] | 1 µM | 5.7 µM
6 | O=C(NCc1ccnc(F)c1)n1c2c(c3cc(F)c(Cl)cc31)CN(C/C=C/c1ccc(F)cc1F)CC2 [Example 312, (E)-7-chloro-2-(3-(2,4-difluorophenyl)allyl)-8-fluoro-N-((2-fluoropyridin-4-yl)methyl)-1,2,3,4-tetrahydro-5H-pyrido[4,3-b]indole-5-carboxamide] | 0.1 µM | 1 µM
7 | N#Cc1ccc(/C=C/CN2CCc3c(c4cc(C(F)(F)F)ccc4n3C(=O)NCc3ccnc(Cl)c3)C2)cc1F [Example 411, (E)-N-((2-chloropyridin-4-yl)methyl)-2-(3-(4-cyano-3-fluorophenyl)allyl)-8-(trifluoromethyl)-1,2,3,4-tetrahydro-5H-pyrido[4,3-b]indole-5-carboxamide] | 0.03 µM | 1.8 µM
8 | N#Cc1ccc2c3c(n(C(=O)NCc4ccnc(Cl)c4)c2c1)CCN(C/C=C/c1cc(Br)ccc1F)C3 [Example 11, (E)-2-(3-(5-bromo-2-fluorophenyl)allyl)-N-((2-chloropyridin-4-yl)methyl)-7-cyano-1,2,3,4-tetrahydro-5H-pyrido[4,3-b]indole-5-carboxamide] | 1.8 µM | > 100 µM
9 | O=C(NCc1ccnc(Cl)c1)n1c2c(c3cc(OC(F)(F)F)ccc31)CN(C/C=C/c1ccc(F)cc1F)CC2 [Example 387, (E)-N-((2-chloropyridin-4-yl)methyl)-2-(3-(2,4-difluorophenyl)allyl)-8-(trifluoromethoxy)-1,2,3,4-tetrahydro-5H-pyrido[4,3-b]indole-5-carboxamide] | 0.2 µM | 3.3 µM
10 | N#Cc1cc2c3c(n(C(=O)NCc4ccnc(Cl)c4)c2cc1F)CCN(C/C=C/c1ccc(Cl)cc1)C3 [Example 178, (E)-2-(3-(4-chlorophenyl)allyl)-N-((2-chloropyridin-4-yl)methyl)-8-cyano-7-fluoro-1,2,3,4-tetrahydro-5H-pyrido[4,3-b]indole-5-carboxamide] | 0.3 µM | > 100 µM
11 | O=C(NCc1ccnc(F)c1)n1c2c(c3cc(C4CC4)ccc31)CN(C/C=C/c1ccc(Cl)cc1)CC2 [Example 501, (E)-2-(3-(4-chlorophenyl)allyl)-8-cyclopropyl-N-((2-fluoropyridin-4-yl)methyl)-1,2,3,4-tetrahydro-5H-pyrido[4,3-b]indole-5-carboxamide] | 3.3 µM | 18.2 µM
12 | N#Cc1ccc2c(c1)c1c(n2C(=O)NCc2ccnc(F)c2)CCN(C/C=C/c2ccc(F)c(C#N)c2)C1 [Example 113, (E)-8-cyano-2-(3-(3-cyano-4-fluorophenyl)allyl)-N-((2-fluoropyridin-4-yl)methyl)-1,2,3,4-tetrahydro-5H-pyrido[4,3-b]indole-5-carboxamide] | 1.3 µM | > 100 µM
13 | N#Cc1ccc(/C=C/CN2CCc3c(c4ccc(Br)cc4n3C(=O)NCc3ccnc(Cl)c3)C2)cc1F [Example 438, (E)-7-bromo-N-((2-chloropyridin-4-yl)methyl)-2-(3-(4-cyano-3-fluorophenyl)allyl)-1,2,3,4-tetrahydro-5H-pyrido[4,3-b]indole-5-carboxamide] | > 100 µM | 18.2 µM
14 | O=C(NCc1cnc(Cl)s1)n1c2c(c3cc(Br)ccc31)CN(C/C=C/c1ccc(Cl)cc1)CC2 [Example 193, (E)-8-bromo-2-(3-(4-chlorophenyl)allyl)-N-((2-chlorothiazol-5-yl)methyl)-1,2,3,4-tetrahydro-5H-pyrido[4,3-b]indole-5-carboxamide] | 1 µM | 75.8 µM
15 | O=C(NCc1ccnc(Cl)c1)n1c2c(c3ccc(Cl)cc31)CN(C/C=C/c1ccc(F)cc1)CC2 [Example 217, (E)-7-chloro-N-((2-chloropyridin-4-yl)methyl)-2-(3-(4-fluorophenyl)allyl)-1,2,3,4-tetrahydro-5H-pyrido[4,3-b]indole-5-carboxamide] | 1.8 µM | 3.3 µM
16 | N#Cc1ccc2c(c1)c1c(n2C(=O)NCc2ccnc(F)c2)CCN(C/C=C/c2ccc(Cl)cc2)C1 [Example 121, (E)-2-(3-(4-chlorophenyl)allyl)-8-cyano-N-((2-fluoropyridin-4-yl)methyl)-1,2,3,4-tetrahydro-5H-pyrido[4,3-b]indole-5-carboxamide] | 0.3 µM | 10 µM
17 | O=C(NCc1ccnc(Cl)c1)n1c2c(c3c(Cl)cccc31)CN(C/C=C/c1ccc(C(F)(F)F)cn1)CC2 [Example 207, (E)-9-chloro-N-((2-chloropyridin-4-yl)methyl)-2-(3-(5-(trifluoromethyl)-pyridin-2-yl)allyl)-1,2,3,4-tetrahydro-5H-pyrido[4,3-b]indole-5-carboxamide] | 0.3 µM | 10 µM
18 | NC(=O)c1ccc2c(c1)c1c(n2C(=O)NCc2ccnc(Cl)c2)CCN(C/C=C/c2ccc(Cl)c(F)c2)C1 [Example 467, (E)-2-(3-(4-chloro-3-fluorophenyl)allyl)-N^5-((2-chloropyridin-4-yl)methyl)-1,2,3,4-tetrahydro-5H-pyrido[4,3-b]indole-5,8-dicarboxamide] | > 100 µM | 1 µM
19 | N#Cc1ccc2c(c1)c1c(n2C(=O)NCc2ccnc(Cl)c2)CCN(C/C=C/c2ccc(Cl)cc2)C1 [Example 92, (E)-2-(3-(4-chlorophenyl)allyl)-N-((2-chloropyridin-4-yl)methyl)-8-cyano-1,2,3,4-tetrahydro-5H-pyrido[4,3-b]indole-5-carboxamide] | 0.3 µM | 3.3 µM
20 | N#Cc1ccc(/C=C/CN2CCc3c(c4cc(Cl)c(Cl)cc4n3C(=O)NCc3ccnc(Cl)c3)C2)cc1 [Example 279, (E)-7,8-dichloro-N-((2-chloropyridin-4-yl)methyl)-2-(3-(4-cyanophenyl)allyl)-1,2,3,4-tetrahydro-5H-pyrido[4,3-b]indole-5-carboxamide] | 1.8 µM | > 100 µM
21 | N#Cc1ccc(/C=C/CN2CCc3c(c4cc(F)c(C#N)cc4n3C(=O)NCc3ccnc(Cl)c3)C2)cc1 [Example 173, (E)-N-((2-chloropyridin-4-yl)methyl)-7-cyano-2-(3-(4-cyanophenyl)allyl)-8-fluoro-1,2,3,4-tetrahydro-5H-pyrido[4,3-b]indole-5-carboxamide] | 18.2 µM | > 100 µM
22 | O=C(NCc1ccnc(Cl)c1)n1c2c(c3cc(N4CCCSC4)ccc31)CN(C/C=C/c1ccc(Cl)c(Cl)c1)CC2 [Example 511, (E)-N-((2-chloropyridin-4-yl)methyl)-2-(3-(3,4-dichlorophenyl)allyl)-8-(1,3-thiazinan-3-yl)-1,2,3,4-tetrahydro-5H-pyrido[4,3-b]indole-5-carboxamide] | > 100 µM | > 100 µM
23 | N#Cc1cc(/C=C/CN2CCc3c(c4cc(Cl)ccc4n3C(=O)NCc3ccnc(Cl)c3)C2)ccc1F [Example 234, (E)-8-chloro-N-((2-chloropyridin-4-yl)methyl)-2-(3-(3-cyano-4-fluorophenyl)allyl)-1,2,3,4-tetrahydro-5H-pyrido[4,3-b]indole-5-carboxamide] | 0.1 µM | 3.3 µM
24 | N#Cc1ccc2c(c1)c1c(n2C(=O)NCc2ccnc(Cl)c2)CCN(C/C=C/c2c(F)cc(F)cc2F)C1 [Example 76, (E)-N-((2-chloropyridin-4-yl)methyl)-8-cyano-2-(3-(2,4,6-trifluorophenyl)allyl)-1,2,3,4-tetrahydro-5H-pyrido[4,3-b]indole-5-carboxamide] | 0.1 µM | > 100 µM
25 | O=C(NCc1ccnc(Cl)c1)n1c2c(c3c(OC(F)(F)F)cccc31)CN(C/C=C/c1ccc(OC(F)(F)F)cc1)CC2 [Example 361, (E)-N-((2-chloropyridin-4-yl)methyl)-9-(trifluoromethoxy)-2-(3-(4-(trifluoro-methoxy)phenyl)allyl)-1,2,3,4-tetrahydro-5H-pyrido[4,3-b]indole-5-carboxamide] | > 100 µM | 57.4 µM
